In PubChem BioAssay AID328 (DTP/NCI, 2004):
Where “and” joins values, the source holds several entries; their conditions need not be identical. Equal values may be shown once. Toxic doses and inconclusive results are not listed.

Tested on: BDF1 mice, P388 leukemia ip, median survival T/C
Experiment: NCI In Vivo Anticancer Drug Screen. Data for tumor model P388 Leukemia (intraperitoneal) in B6D2F1 (BDF1) mice
Conditions: endpoint: median survival time, higher = longer survival
In short: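 Reported as T/C, where T is the survival measurement in dosed animals and C the same measurement in vehicle controls.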

[1] = dose: 100.0 mg/kg/injection, schedule: Q01DX005 (ip), vehicle: saline with Tween-80
[2] = dose: 50.0 mg/kg/injection, schedule: Q01DX009 (ip), vehicle: saline
[3] = dose: 100.0 mg/kg/injection, schedule: Q01DX009 (ip), vehicle: saline
[4] = dose: 50.0 mg/kg/injection, schedule: Q04DX003 (ip), vehicle: saline with Tween-80
[5] = dose: 100.0 mg/kg/injection, schedule: Q04DX003 (ip), vehicle: saline with Tween-80
[6] = dose: 200.0 mg/kg/injection, schedule: Q01DX009 (ip), vehicle: saline with Tween-80
[7] = dose: 200.0 mg/kg/injection, schedule: Q04DX003 (ip), vehicle: saline with Tween-80
[8] = dose: 400.0 mg/kg/injection, schedule: Q01DX009 (ip), vehicle: saline with Tween-80
[9] = dose: 100.0 mg/kg/injection, schedule: Q04DX003 (ip), vehicle: saline
[10] = dose: 200.0 mg/kg/injection, schedule: Q04DX003 (ip), vehicle: saline
[11] = dose: 100.0 mg/kg/injection, schedule: Q01DX009 (ip), vehicle: saline with Tween-80
[12] = dose: 400.0 mg/kg/injection, schedule: Q04DX003 (ip), vehicle: saline

COc1ccc(Cl)cc1NC(=O)NNC(=O)C(=O)Nc1ccc(F)cc1
T/C (dose: 50.0 mg/kg/injection, schedule: Q01DX005 (ip), vehicle: saline with Tween-80): 91 % of control
T/C [1]: 91 % of control
T/C (dose: 200.0 mg/kg/injection, schedule: Q01DX005 (ip), vehicle: saline with Tween-80): 100 % of control

COC(=O)CC(N)C(=O)OC (centres undefined)
T/C (dose: 25.0 mg/kg/injection, schedule: Q01DX009 (ip), vehicle: saline): 102 % of control
T/C [2]: 110 % of control
T/C [3]: 103 % of control

C#CCCC#C
T/C [4]: 100 % of control
T/C (dose: 67.0 mg/kg/injection, schedule: Q01DX005 (ip), vehicle: saline with Tween-80): 96 % of control
T/C [1]: 115 % of control
T/C [5]: 104 % of control
T/C (dose: 150.0 mg/kg/injection, schedule: Q01DX005 (ip), vehicle: saline with Tween-80): 92 % of control
T/C [6]: 103 % of control
T/C [7]: 108 % of control
T/C [8]: 111 % of control

COc1cc2cc(c1Cl)NC(=O)/C=C/[C@]1(C)O[C@H]1[C@H](C)[C@@H]1C[C@@](O)(NC(=O)O1)[C@H](OC)C=C/C=C(\C)C2
T/C (dose: 0.2 micrograms/kg/injection, schedule: Q01DX009 (ip), vehicle: saline + alcohol): 100 % of control
T/C (dose: 0.4 micrograms/kg/injection, schedule: Q01DX009 (ip), vehicle: saline + alcohol): 100 % of control
T/C (dose: 0.8 micrograms/kg/injection, schedule: Q01DX009 (ip), vehicle: saline + alcohol): 90 % of control
T/C (dose: 1.6 micrograms/kg/injection, schedule: Q01DX009 (ip), vehicle: saline + alcohol): 100 % of control
T/C (dose: 3.1 micrograms/kg/injection, schedule: Q01DX009 (ip), vehicle: saline + alcohol): 115 % of control
T/C (dose: 6.2 micrograms/kg/injection, schedule: Q01DX009 (ip), vehicle: saline + alcohol): 115 % of control
T/C (dose: 12.5 micrograms/kg/injection, schedule: Q01DX009 (ip), vehicle: saline + alcohol): 87 % of control and 110 % of control
T/C (dose: 25.0 micrograms/kg/injection, schedule: Q01DX009 (ip), vehicle: saline + alcohol): 87 % of control and 110 % of control
T/C (dose: 50.0 micrograms/kg/injection, schedule: Q01DX009 (ip), vehicle: saline + alcohol): 91 % of control and 110 % of control
T/C (dose: 100.0 micrograms/kg/injection, schedule: Q01DX009 (ip), vehicle: saline + alcohol): 91 % of control and 95 % of control

CC1(C)N=C(N)N=C(N)N1c1cccc(CCCCc2ccc(S(=O)(=O)F)cc2Cl)c1
T/C (dose: 3.13 mg/kg/injection, schedule: Q01DX009 (ip), vehicle: saline sonified): 109 % of control
T/C (dose: 4.0 mg/kg/injection, schedule: Q01DX009 (ip), vehicle: saline): 116 % of control
T/C (dose: 4.0 mg/kg/injection, schedule: Q04DX003 (ip), vehicle: saline with Tween-80): 100 % of control
T/C (dose: 6.0 mg/kg/injection, schedule: Q04DX003 (ip), vehicle: saline with Tween-80): 113 % of control
T/C (dose: 6.25 mg/kg/injection, schedule: Q01DX009 (ip), vehicle: saline): 116 % of control
T/C (dose: 9.0 mg/kg/injection, schedule: Q04DX003 (ip), vehicle: saline with Tween-80): 118 % of control
T/C (dose: 9.4 mg/kg/injection, schedule: Q01DX009 (ip), vehicle: saline): 116 % of control

CCOP1(=O)N(C)CCN1C
T/C [2]: 95 % of control

COc1cccc(/C=C/C(=O)O)c1OC
T/C (dose: 25.0 mg/kg/injection, schedule: Q04DX003 (ip), vehicle: water): 106 % of control
T/C (dose: 50.0 mg/kg/injection, schedule: Q04DX003 (ip), vehicle: water): 103 % of control
T/C (dose: 100.0 mg/kg/injection, schedule: Q04DX003 (ip), vehicle: water): 112 % of control
T/C (dose: 200.0 mg/kg/injection, schedule: Q04DX003 (ip), vehicle: water): 106 % of control
T/C (dose: 400.0 mg/kg/injection, schedule: Q04DX003 (ip), vehicle: water): 97 % of control

CN(C)C(CCc1ccccc1)C(=O)O (centres undefined)
T/C [9]: 100 % of control
T/C [10]: 104 % of control

Clc1ccc(C[P+](c2ccccc2)(c2ccccc2)c2ccccc2)cc1Cl
T/C (dose: 0.45 mg/kg/injection, schedule: Q01DX009 (ip), vehicle: saline): 104 % of control
T/C (dose: 0.9 mg/kg/injection, schedule: Q01DX009 (ip), vehicle: saline): 100 % of control
T/C (dose: 1.35 mg/kg/injection, schedule: Q01DX001 (ip), vehicle: saline): 100 % of control
T/C (dose: 1.8 mg/kg/injection, schedule: Q01DX009 (ip), vehicle: saline): 91 % of control
T/C (dose: 2.7 mg/kg/injection, schedule: Q01DX001 (ip), vehicle: saline): 95 % of control
T/C (dose: 3.6 mg/kg/injection, schedule: Q01DX009 (ip), vehicle: saline): 108 % of control

OC(CCl)COCC#Cc1ccccc1 (centres undefined)
T/C (dose: 25.0 mg/kg/injection, schedule: Q04DX003 (ip), vehicle: saline with Tween-80): 105 % of control
T/C [4]: 100 % of control
T/C [11]: 95 % of control
T/C [5]: 115 % of control
T/C [6]: 112 % of control
T/C [7]: 95 % of control
T/C [8]: 116 % of control
T/C (dose: 400.0 mg/kg/injection, schedule: Q04DX003 (ip), vehicle: saline with Tween-80): 95 % of control

COc1cc(-c2nc3ccccc3c(=O)o2)cc(OC)c1OC
T/C (dose: 50.0 mg/kg/injection, schedule: Q01DX009 (ip), vehicle: saline with Tween-80): 105 % of control
T/C [11]: 115 % of control
T/C [5]: 100 % of control
T/C [6]: 100 % of control
T/C [7]: 100 % of control

COC(OC)c1cc(=O)[nH]c(=S)[nH]1
T/C (dose: 100.0 mg/kg/injection, schedule: Q01DX001 (ip), vehicle: Klucel (hydroxypropylcellulose) (HPC)): 100 % of control
T/C (dose: 200.0 mg/kg/injection, schedule: Q01DX001 (ip), vehicle: Klucel (hydroxypropylcellulose) (HPC)): 109 % of control
T/C (dose: 400.0 mg/kg/injection, schedule: Q01DX001 (ip), vehicle: Klucel (hydroxypropylcellulose) (HPC)): 90 % of control

Nc1nc(Cl)nc2c1ncn2C1OC(CO)C(O)C1O (centres undefined)
T/C (dose: 12.5 mg/kg/injection, schedule: Q01DX010 (ip), vehicle: carboxymethylcellulose (CMC)): 123 % of control
T/C (dose: 50.0 mg/kg/injection, schedule: Q01DX010 (ip), vehicle: carboxymethylcellulose (CMC)): 161 % of control
T/C (dose: 100.0 mg/kg/injection, schedule: Q01DX010 (ip), vehicle: carboxymethylcellulose (CMC)): 238 % of control
T/C (dose: 112.5 mg/kg/injection, schedule: Q01DX009 (ip), vehicle: saline): 159 % of control and 191 % of control
T/C (dose: 168.75 mg/kg/injection, schedule: Q01DX009 (ip), vehicle: saline): 177 % of control

COc1ccc(C(C#N)N2CCCCC2)cc1 (centres undefined)
T/C (dose: 12.5 mg/kg/injection, schedule: Q01DX009 (ip), vehicle: Klucel (hydroxypropylcellulose) (HPC)): 115 % of control
T/C (dose: 25.0 mg/kg/injection, schedule: Q01DX009 (ip), vehicle: Klucel (hydroxypropylcellulose) (HPC)): 100 % of control
T/C (dose: 25.0 mg/kg/injection, schedule: Q04DX003 (ip), vehicle: Klucel (hydroxypropylcellulose) (HPC)): 113 % of control
T/C (dose: 50.0 mg/kg/injection, schedule: Q01DX009 (ip), vehicle: Klucel (hydroxypropylcellulose) (HPC)): 100 % of control
T/C (dose: 50.0 mg/kg/injection, schedule: Q04DX003 (ip), vehicle: Klucel (hydroxypropylcellulose) (HPC)): 100 % of control
T/C (dose: 100.0 mg/kg/injection, schedule: Q04DX003 (ip), vehicle: Klucel (hydroxypropylcellulose) (HPC)): 100 % of control and 104 % of control

Cc1c(O)c2c(c(O)c1Cc1ccc(CN)cc1)C(=O)c1ccccc1C2=O
T/C (dose: 12.5 mg/kg/injection, schedule: Q01DX009 (ip), vehicle: water): 90 % of control
T/C (dose: 25.0 mg/kg/injection, schedule: Q01DX009 (ip), vehicle: water): 114 % of control

COc1cc(/C=N/n2cnnc2)cc(OC)c1OC
T/C [9]: 100 % of control
T/C [10]: 100 % of control
T/C [12]: 109 % of control

NC(N)=NCCCC(=O)O
T/C [2]: 104 % of control
T/C [3]: 94 % of control and 103 % of control
T/C [9]: 95 % of control
T/C (dose: 200.0 mg/kg/injection, schedule: Q01DX009 (ip), vehicle: saline): 101 % of control and 103 % of control
T/C [10]: 100 % of control
T/C (dose: 400.0 mg/kg/injection, schedule: Q01DX009 (ip), vehicle: saline): 92 % of control and 106 % of control
T/C [12]: 104 % of control
